pIC50: −log10 of the molar value. Where two headings read alike, the source gives them in different places.
How the values were obtained:
[1] = biological target: T1, NTRK1 (SEQ ID No. 1) recombinant kinase (Homo sapiens, UniProt P04629); assay: Recombinant NTRK1 kinase assay (ADP production coupled to pyruvate kinase/lactate dehydrogenase); assay type: biochemical; settings: recombinant NTRK1 4.7 nM, ATP 1 mM
T1 construct: purchased Invitrogen
Source text: NTRK1 protein sequence used for screening (SEQ ID No. 1)

[2] = biological target: T2, NTRK2 (SEQ ID No. 2) recombinant kinase (Homo sapiens, UniProt Q16620); assay: Recombinant NTRK2 kinase assay (ADP production coupled to pyruvate kinase/lactate dehydrogenase); assay type: biochemical; settings: recombinant NTRK2 4 nM, ATP 1 mM
T2 construct: purchased Invitrogen
Source text: NTRK2 protein sequence used for screening (SEQ ID No. 2)

[3] = tested on: Transfected NIH-3T3 ETV6-NTRK3 cells; assay: Transfected NIH-3T3 ETV6-NTRK3 cell proliferation assay (resazurin); assay type: cell-based; settings: Mus musculus, NIH3T3, 144 h; transfected NIH-3T3 cells, six days, 0.5% FBS; read-out: IC50, inhibition of proliferation, ETV6-NTRK3 transfected NIH-3T3
Protocol: Transfected NIH-3T3 ETV6-NTRK3 cells were obtained from the laboratory of James Fagin, MD (Memorial Sloan Kettering Cancer Center). Briefly, cells were grown in DMEM media supplemented with 10% characterized fetal bovine serum, 1% Penicillin/Streptomycin/L-glutamine solution (Life Technologies, Carlsbad, Calif.) and 1 μg/mL puromycin (Invitrogen, Carlsbad, Calif.) at 37 degrees Celsius, 5% CO2, and 95% humidity. Cells were allowed to expand until reaching approximately 75% confluency at which point they were subcultured or harvested for assay use.

TPM3-NTRK1 = biological target: T3, TPM3-NTRK1 (Homo sapiens, UniProt P04629); assay: KM-12 phospho-NTRK1 Western blot; assay type: cell-based; settings: KM-12 cells, 4 h compound; read-out: IC50, inhibition of TPM3-NTRK1 phosphorylation
T3 construct: chromosomal translocation of the kinase domain of NTRK1, NTRK2, or NTRK3 with a variety of N-terminal fusion partners; TPM3 N-terminal portion (fusion partner, P06753); endogenous in cells; host or cells: KM-12 (NCI DCTD Tumor Repository); also grown as subcutaneous xenograft in mice; the other entry of the earlier key: TPM3 (P06753, Tropomyosin alpha-3 chain)
Protocol: Briefly, cells were grown in RPMI 1640 media supplemented with 10% characterized fetal bovine serum and 1% Penicillin/Streptomycin/L-glutamine solution (Invitrogen, Carlsbad, Calif.) at 37 degrees Celsius, 5% CO2, and 95% humidity. Cells were allowed to expand until reaching 70-95% confluency at which point they were subcultured or harvested for assay use.
Two hundred fifty thousand cells in growth medium were added per well in a 24-well tissue-culture treated plate. The plate was incubated overnight at 37 degrees Celsius, 5% CO2, and 95% humidity. The next day, a serial dilution of test compound was added to the cells, and plates were incubated for 4 hours at 37 degrees Celsius, 5% CO2, and 95% humidity. Media was then aspirated, cells were washed with PBS, and then lysed. Cell lysates were separated by SDS-PAGE and transferred to PVDF. Phospho-NTRK1 (Tyr674/675) was detected using an antibody from Cell Signaling Technology (Beverly, Mass.), ECL Plus detection reagent (GE Healthcare, Piscataway, N.J.) and a Molecular Devices Storm 840 phosphorimager in fluorescence mode. Blots were stripped and probed for total NTRK1 using an antibody from Santa Cruz Biotech (Santa Cruz, Calif.). IC50 values were calculated using Prism software (Graphpad, San Diego, Calif.).

NTRK2 = biological target: T4, NTRK2 (Homo sapiens, UniProt Q16620); assay: SK-N-SH (retinoic acid differentiated) phospho-NTRK2 Western blot; assay type: cell-based; settings: SK-N-SH cells differentiated with all-trans retinoic acid, BDNF 100 ng/mL stimulated; read-out: IC50, inhibition of NTRK2 phosphorylation
T4 construct: endogenous in cells; host or cells: SK-N-SH (ATCC HTB-11), differentiated with 10 µM all-trans retinoic acid
Protocol: SK-N-SH cells (catalog #HTB-11) were obtained from the American Type Culture Collection (ATCC; Manassas, Va.). Briefly, SK-N-SH cells were grown in MEM medium supplemented with 10% characterized fetal bovine serum and 1% Penicillin-Streptomycin-L-glutamine solution (Invitrogen, Carlsbad, Calif.) at 37 degrees Celsius, 5% CO2, and 95% humidity. Cells were allowed to expand until reaching 70-95% confluency at which point they were subcultured. To induce expression of NTRK2, cells were grown in growth medium containing 10 μM all-trans retinoic acid for ten to fourteen days prior to harvesting cells for assay use.
(§1) Two hundred fifty thousand cells differentiated with 10 μM all-trans retinoic acid in growth medium were added per well in a 12-well tissue-culture treated plate. The plate was incubated overnight at 37 degrees Celsius, 5% CO2, and 95% humidity. The next day, growth media was aspirated, cells were washed with serum-free MEM media, and one milliliter serum-free MEM media was added per well. […] Phospho-NTRK2 (Tyr706/707) was detected using an antibody from Cell Signaling Technology (Beverly, Mass.), ECL Plus detection reagent (GE Healthcare, Piscataway, N.J.) and a Molecular Devices Storm 840 phosphorimager in fluorescence mode. […] IC50 values were calculated using Prism software (Graphpad, San Diego, Calif.).

[4] = tested on: KM-12 TPM3-NTRK1 xenograft; assay: KM-12 TPM3-NTRK1 xenograft model, single-agent efficacy; assay type: in vivo, Mice; settings: PO, BID
Source text: Mice were implanted subcutaneously and treatment began on Day 5. Treatments ended on Day 25 after three weeks of treatment.

[5] = biological target: T5, NTRK1 kinase phosphorylation (TPM3-NTRK1) (Homo sapiens, UniProt P04629); assay: KM-12 TPM3-NTRK1 xenograft model, inhibition of NTRK1 phosphorylation in tumors after a single dose; assay type: in vivo, Mice; settings: KM12, mouse, po; for inhibition at 15 mg/kg: single dose 15 mg/kg PO; for inhibition at 7.5 mg/kg: single oral dose 7.5 mg/kg
T5 construct: chromosomal translocation of the kinase domain of NTRK1, NTRK2, or NTRK3 with a variety of N-terminal fusion partners; TPM3 N-terminal portion (fusion partner, P06753); endogenous in cells; host or cells: KM-12 (NCI DCTD Tumor Repository); also grown as subcutaneous xenograft in mice; the other entry of the earlier key: TPM3 (P06753, Tropomyosin alpha-3 chain)
Source text: (§2) Mice were implanted subcutaneously and a single treatment was given on Day 8. At time points after the single oral dose, tumors were resected, frozen, pulverized, and then lysed. Lysates were separated by SDS-PAGE and protein was transferred to PVDF. Phospho-NTRK1 (Tyr674/675) was detected using an antibody from Cell Signaling Technology (Beverly, Mass.), ECL Plus detection reagent (GE Healthcare, Piscataway, N.J.) and a Molecular Devices Storm 840 phosphorimager in fluorescence mode. Blots were stripped and probed for total NTRK1 using an antibody from Santa Cruz Biotech (Santa Cruz, Calif.).

[6] = tested on: NIH-3T3 ETV6-NTRK3 xenograft; assay: Transfected NIH-3T3 ETV6-NTRK3 xenograft model, single-agent efficacy; assay type: in vivo, Mice; settings: 15 mg/kg, PO, BID, p<0.05
Source text: Mice were implanted subcutaneously and treatment began on Day 4. Treatments ended on Day 24 after three weeks of treatment.

[7] = tested on: NTRK3 kinase phosphorylation (ETV6-NTRK3); assay: Transfected NIH-3T3 ETV6-NTRK3 xenograft model, inhibition of NTRK3 phosphorylation in tumors after a single dose; assay type: in vivo, Mice; settings: single dose 15 mg/kg PO
Source text: as §2, with “6.” for “8.”, “doses,” for “dose,”, “Phospho-NTRK3 (Tyr516)” for “Phospho-NTRK1 (Tyr674/675)”, “mode.” for “mode. Blots were stripped and probed for total NTRK1 using an antibody from Santa Cruz Biotech (Santa Cruz, Calif.).”

NTRK1 [8] = biological target: T6, NTRK1 (Homo sapiens, UniProt P04629); assay: K562 phospho-NTRK1 Western blot; assay type: cell-based; design: endogenous in cells; settings: K562 cells, 4 h compound, NGF 100 ng/mL stimulated; read-out: IC50, inhibition of NTRK1 phosphorylation
Protocol: (§3) K562 cells (catalog #CCL-243) were obtained from the American Type Culture Collection (ATCC; Manassas, Va.). Briefly, K562 cells were grown in suspension in IMDM medium supplemented with 10% characterized fetal bovine serum and 1% Penicillin-Streptomycin-L-glutamine solution (Invitrogen, Carlsbad, Calif.) at 37 degrees Celsius, 5% CO2, and 95% humidity. Cells were allowed to expand until reaching one to three million cells per milliliter at which point they were subcultured or harvested for assay use.
One million cells in serum-free IMDM media were added per well in a 24-well tissue-culture treated plate. A serial dilution of test compound was added to cells and plates were incubated for 4 hours at 37 degrees Celsius, 5% CO2, and 95% humidity. Cells were then stimulated for 10 minutes with 100 ng/mL NGF (R&D Systems, Minneapolis, Minn.). Cells pelleted by centrifugation, washed with PBS, then lysed. Cell lysates were separated by SDS-PAGE and transferred to PVDF. Phospho-NTRK1 (Tyr674/675) was detected using an antibody from Cell Signaling Technology (Beverly, Mass.), ECL Plus detection reagent (GE Healthcare, Piscataway, N.J.) and a Molecular Devices Storm 840 phosphorimager in fluorescence mode. Blots were stripped and probed for total NTRK1 using an antibody from Santa Cruz Biotech (Santa Cruz, Calif.). IC50 values were calculated using Prism software (Graphpad, San Diego, Calif.).

NTRK1 [9] = biological target: T6, NTRK1; assay: SK-N-SH phospho-NTRK1 Western blot; assay type: cell-based; design: endogenous in cells; host or cells: SK-N-SH (ATCC HTB-11); settings: SK-N-SH cells, 4 h compound, NGF 100 ng/mL stimulated; read-out: IC50, inhibition of NTRK1 phosphorylation
Protocol: as §3, with “SK-N-SH” for “K562”, “#HTB-11)” for “#CCL-243)”, “MEM” for “suspension in IMDM”, “70-95% confluency” for “one to three million cells per milliliter”
as §1, with “cells” for “cells differentiated with 10 μM all-trans retinoic acid”, “24-well” for “12-well”, “well. A serial dilution of test compound was added to the cells, and plates were incubated for 4 hours at 37 degrees Celsius, 5% CO2, and 95% humidity. Cells were then stimulated for 10 minutes with 100 ng/mL NGF (R&D Systems, Minneapolis, Minn.).” for “well.”, “Phospho-NTRK1 (Tyr674/675)” for “Phospho-NTRK2 (Tyr706/707)”

[10] = 3.75 mg/kg, not statistically significant

T5 sequence (P04629 with tags, fused parts or gaps): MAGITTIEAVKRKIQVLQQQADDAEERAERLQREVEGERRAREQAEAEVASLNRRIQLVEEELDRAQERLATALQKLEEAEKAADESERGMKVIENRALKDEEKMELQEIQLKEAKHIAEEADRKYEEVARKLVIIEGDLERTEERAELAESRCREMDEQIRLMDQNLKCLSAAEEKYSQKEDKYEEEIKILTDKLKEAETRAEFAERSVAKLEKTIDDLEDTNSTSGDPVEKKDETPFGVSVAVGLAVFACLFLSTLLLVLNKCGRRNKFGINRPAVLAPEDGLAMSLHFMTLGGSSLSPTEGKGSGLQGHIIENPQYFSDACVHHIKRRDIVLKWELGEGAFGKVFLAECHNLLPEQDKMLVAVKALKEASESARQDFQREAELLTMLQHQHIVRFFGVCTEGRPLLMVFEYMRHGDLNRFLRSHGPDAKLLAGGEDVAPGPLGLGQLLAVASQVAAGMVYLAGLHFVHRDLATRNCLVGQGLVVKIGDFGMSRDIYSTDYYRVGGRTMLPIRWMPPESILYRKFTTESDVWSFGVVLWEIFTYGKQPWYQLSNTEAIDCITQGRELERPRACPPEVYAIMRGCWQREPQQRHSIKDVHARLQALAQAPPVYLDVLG
T6 sequence (P04629 33-796): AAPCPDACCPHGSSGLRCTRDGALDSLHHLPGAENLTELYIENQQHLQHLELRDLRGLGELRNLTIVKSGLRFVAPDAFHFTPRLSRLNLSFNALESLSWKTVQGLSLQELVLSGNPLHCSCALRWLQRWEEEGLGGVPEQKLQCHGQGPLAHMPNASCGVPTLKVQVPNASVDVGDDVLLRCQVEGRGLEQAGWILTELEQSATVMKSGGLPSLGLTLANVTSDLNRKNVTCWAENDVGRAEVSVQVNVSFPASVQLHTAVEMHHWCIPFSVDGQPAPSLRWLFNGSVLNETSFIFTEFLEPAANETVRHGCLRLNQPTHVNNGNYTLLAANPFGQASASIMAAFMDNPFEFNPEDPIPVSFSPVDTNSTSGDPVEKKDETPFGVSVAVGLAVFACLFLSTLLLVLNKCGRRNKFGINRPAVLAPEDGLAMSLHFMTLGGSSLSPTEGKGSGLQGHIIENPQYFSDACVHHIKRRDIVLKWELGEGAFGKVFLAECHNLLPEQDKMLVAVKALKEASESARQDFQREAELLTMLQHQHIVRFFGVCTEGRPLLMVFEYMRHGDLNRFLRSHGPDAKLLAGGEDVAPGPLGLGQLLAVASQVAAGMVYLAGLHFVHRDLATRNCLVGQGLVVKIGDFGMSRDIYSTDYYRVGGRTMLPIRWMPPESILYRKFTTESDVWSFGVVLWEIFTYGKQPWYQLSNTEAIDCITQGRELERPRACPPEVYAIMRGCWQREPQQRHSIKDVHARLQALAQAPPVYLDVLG
T1 sequence (P04629 with tags, fused parts or gaps): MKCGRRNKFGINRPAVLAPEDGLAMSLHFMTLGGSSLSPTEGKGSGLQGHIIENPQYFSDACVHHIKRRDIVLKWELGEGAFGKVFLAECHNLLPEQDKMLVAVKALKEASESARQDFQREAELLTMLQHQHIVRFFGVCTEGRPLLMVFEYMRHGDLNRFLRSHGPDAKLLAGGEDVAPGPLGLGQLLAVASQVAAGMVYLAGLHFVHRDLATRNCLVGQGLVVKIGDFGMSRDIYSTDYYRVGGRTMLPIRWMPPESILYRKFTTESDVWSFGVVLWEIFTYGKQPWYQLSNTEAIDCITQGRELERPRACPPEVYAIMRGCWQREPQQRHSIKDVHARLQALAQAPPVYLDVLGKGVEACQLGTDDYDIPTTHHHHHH
T2 sequence (Q16620 with tags, fused parts or gaps): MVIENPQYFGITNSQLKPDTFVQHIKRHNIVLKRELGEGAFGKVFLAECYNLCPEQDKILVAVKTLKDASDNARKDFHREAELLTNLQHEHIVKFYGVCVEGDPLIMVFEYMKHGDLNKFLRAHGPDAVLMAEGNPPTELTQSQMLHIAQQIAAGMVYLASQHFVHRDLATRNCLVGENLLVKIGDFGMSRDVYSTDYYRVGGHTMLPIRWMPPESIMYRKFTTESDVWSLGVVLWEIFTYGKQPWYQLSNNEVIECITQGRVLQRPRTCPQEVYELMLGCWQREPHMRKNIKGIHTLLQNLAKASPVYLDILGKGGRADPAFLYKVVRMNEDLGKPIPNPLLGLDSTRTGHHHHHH
T4 sequence (Q16620 32-822): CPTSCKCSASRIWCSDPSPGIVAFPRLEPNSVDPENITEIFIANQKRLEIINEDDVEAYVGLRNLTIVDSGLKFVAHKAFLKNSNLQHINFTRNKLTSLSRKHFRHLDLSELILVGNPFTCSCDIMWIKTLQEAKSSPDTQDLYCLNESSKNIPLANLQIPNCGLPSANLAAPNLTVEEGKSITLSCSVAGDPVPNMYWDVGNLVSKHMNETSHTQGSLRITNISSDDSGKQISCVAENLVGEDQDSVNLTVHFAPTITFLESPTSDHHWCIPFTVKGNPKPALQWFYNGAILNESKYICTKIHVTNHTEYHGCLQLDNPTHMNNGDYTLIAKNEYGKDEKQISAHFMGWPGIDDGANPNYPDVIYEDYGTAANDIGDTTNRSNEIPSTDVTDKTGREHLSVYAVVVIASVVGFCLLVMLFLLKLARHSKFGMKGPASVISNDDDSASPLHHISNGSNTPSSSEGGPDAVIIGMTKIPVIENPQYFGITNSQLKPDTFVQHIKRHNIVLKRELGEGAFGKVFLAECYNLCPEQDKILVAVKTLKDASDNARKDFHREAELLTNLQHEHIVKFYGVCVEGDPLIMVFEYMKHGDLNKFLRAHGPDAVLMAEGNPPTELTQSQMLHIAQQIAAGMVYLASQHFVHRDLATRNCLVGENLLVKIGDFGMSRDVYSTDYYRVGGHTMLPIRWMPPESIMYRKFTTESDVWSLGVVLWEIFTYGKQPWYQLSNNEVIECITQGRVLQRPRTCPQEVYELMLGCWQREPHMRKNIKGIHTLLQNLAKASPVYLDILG

O=C(Nc1cc(Oc2cc(F)c(NC(=O)C3(C(=O)Nc4ccc(F)cc4)CC3)cc2F)ccn1)C1CC1 [Compound 1, N-(4-(2-(cyclopropanecarboxamido)pyridin-4-yloxy)-2,5-difluorophenyl)-N′-(4)cyclopropane-1,1-dicarboxamide]
pIC50 [1]: 9.15 | pIC50 [2]: 8.34 | pIC50 [3]: 9.36 | pIC50 (TPM3-NTRK1): 8.85 | pIC50 (NTRK2): 9.62 | Day 11 % T/C [4, 10]: 39% | tumor growth delay [4, 10]: 4.5 days | tumor growth delay ([4]; 7.5 mg/kg, Day 5 to Day 25, p<0.05): 11.4 days | Day 11 % T/C ([4]; 7.5 mg/kg, p<0.05): 22% | tumor growth delay ([4]; 15 mg/kg, Day 5 to Day 25, p<0.05): 17.8 days | Day 11 % T/C ([4]; 15 mg/kg, p<0.05): 16% | inhibition at 15 mg/kg ([5]; 24 hours post dose, read-out: inhibition of NTRK1 phosphorylation): 79% | inhibition at 15 mg/kg ([5]; through 18 hours post dose, read-out: inhibition of NTRK1 kinase phosphorylation in vivo): ~95% | inhibition at 7.5 mg/kg ([5]; 12 hours post dose): 66% | inhibition at 7.5 mg/kg ([5]; 18 hours post dose): 74% | inhibition at 7.5 mg/kg ([5]; 24 hours post dose): 59% | inhibition at 7.5 mg/kg ([5]; for 8 hours): > 95% | tumor growth delay ([6]; Day 4 to Day 24): 26.5 days | Day 8 % T/C [6]: 6% | inhibition of NTRK3 phosphorylation ([7]; 18 hours post dose): 63% | inhibition of NTRK3 phosphorylation ([7]; 24 hours post dose): 23% | inhibition of NTRK3 kinase phosphorylation in vivo ([7]; through 12 hours post dose): > 95% | pIC50 (NTRK1 [8]): 9.16 | pIC50 (NTRK1 [9]): 9.00

Reference: patent US20160101090A1, “INHIBITION OF TRK KINASE MEDIATED TUMOR GROWTH AND DISEASE PROGRESSION” (DECIPHERA PHARMACEUTICALS, LLC, priority 2014, published 2016)
